Data published in patent publication US10071103B2, “Treatments for resistant acne” (VYOME BIOSCIENCES PVT. LTD., priority 2014, dated 2018).
≈ marks a conversion by molar mass, not a printed value.

Assays:
[1] = system: P. acnes CCARM 9010; experiment: MIC by micro broth dilution (Alamar blue), clindamycin-resistant/nonresponsive P. acnes; type: cell-based, Propionibacterium acnes
Protocol: (§1) The plates were incubated at 37° C. for 48 h under anaerobic condition for P. acnes and 37° C. for 24 h for S. aureus The plates were read under Bio-Rad plate reader at 595 nm for optical density to generate the dose-response curves. The MIC of the test compound was recorded by addition of Alamar blue dye.
(§2) P. acnes (MTCC 3297, MTCC 1951& CCARM 9010) are cultured in Brain Heart Infusion (BHI) Broth at 37° C. for 48-72 h under anaerobic condition. The test compounds/formulations are initially diluted with suitable solvent and further diluted with BHI broth to get the required concentrations. Samples (100 μl) of different concentrations (prepared by serial dilution) are added to 96-well plate. To the wells, 100 μl of P. acnes BHI broth culture is added [culture turbidity adjusted against 0.5 McFarland standard (approx 1.5×10^8), and further diluted 100-fold with sterile BHI broth]. In addition Growth Control and Sterility Control are created using 100 μl each of P. acnes BHI broth culture and plain BHI broth, respectively.
(§3) Plates are incubated at 37° C. for 48-72 hrs under anaerobic condition. The plate is read under Bio-Rad plate reader @ 595 nm for optical density to generate the dose-response curves. The MIC of the test compound is recorded by addition of Alamar blue dye.

[2] = system: S. aureus MTCC 6908; experiment: MIC by micro broth dilution, laboratory S. aureus strain; type: cell-based, Staphylococcus aureus
Protocol: as §1
S. aureus MTCC 6908 were grown in Tryptone Soya Agar (TSA) at 37° C. for 24 hours. […] Plates were incubated at 37° C. for 24 hours. […] (2) Zone of Inhibition (ZOI): S. aureus MTCC 6908 were grown in Tryptone Soya Agar (TSA) at 37° C. for 24 hours. BHA plates are spreaded with 100 μl of 0.5 McFarland standard equal bacterial suspension. Test samples (drugs/formulations) were dissolved in water/solvent based on the solubility. Sterile disc (6 mm) were loaded with 10 μl of test samples (of various concentration of drug), and were placed above the spreaded plates. Plates were incubated at 37 C for 24 h, followed by ZOI measurement. (3) Time Kill Assay: 0.5 McFarland standard equal S. aureus culture was prepared in sterile water. Besifloxacin gels were diluted in Tryptone Soya broth (TSB) to get final concentration of 25 μg/ml. Then 900 μl of S. aureus 0.5 McFarland standard equal culture and 100 μl of diluted Besifloxacin gel was mixed to obtain final Besifloxacin concentration, 2.5 μl g/ml. Total reaction mixture (1 ml) was incubated at 37° C. in a tube rotator. After 2 and 6 h exposure, bacterial suspension was placed on Tryptone soya agar plate and incubated at 37° C. for 24 h.
Inoculated plates were incubated at 37° C. for 24 hours.

[3] = system: P. acnes MTCC 1951; experiment: MIC by micro broth dilution (Alamar blue), clindamycin-susceptible P. acnes; type: cell-based, Propionibacterium acnes
Protocol: as §1, §2, §3
BHI broth and BHI agar media were prepared as per the manufacturer's instruction and autoclaved at 121° C. for 15 minutes. […] For MIC determination testing, gels are dissolved in the solvent and further diluted with BHI broth. Then, 96 wells plate are filled with 100 μl of BHI broth containing drug with different concentration to get the final concentrations of 0.06, 0.13, 0.25, 0.5, 1 and 2 μg/ml in different lanes (lane 1 to lane 6). Remaining lanes of the 96 well plate are used as growth control and sterility control. Finally, P. acnes culture suspension (approx 1.5×10^6) is added in all the wells except sterility control wells and plate is incubated at 37° C. for 48-72 h under anaerobic condition. At the end of 72 h, Alamar blue solution (20 μl) is added into the wells and incubated at 37° C. for 2 h. Plate is visualized for bacterial inhibitions and MIC values of the tested samples are determined. […]

[4] = target: T1, E. coli DNA gyrase (Escherichia coli, UniProt P0AES4+P0AES6); experiment: DNA gyrase super-coiling activity assay (Topogen kit, relaxed pHOT1 plasmid); type: biochemical; conditions: 1 μM and 2.5 μM
T1 construct: purchased Topogen Inc
T1 sequence (P0AES4 whole entry, one chain of several): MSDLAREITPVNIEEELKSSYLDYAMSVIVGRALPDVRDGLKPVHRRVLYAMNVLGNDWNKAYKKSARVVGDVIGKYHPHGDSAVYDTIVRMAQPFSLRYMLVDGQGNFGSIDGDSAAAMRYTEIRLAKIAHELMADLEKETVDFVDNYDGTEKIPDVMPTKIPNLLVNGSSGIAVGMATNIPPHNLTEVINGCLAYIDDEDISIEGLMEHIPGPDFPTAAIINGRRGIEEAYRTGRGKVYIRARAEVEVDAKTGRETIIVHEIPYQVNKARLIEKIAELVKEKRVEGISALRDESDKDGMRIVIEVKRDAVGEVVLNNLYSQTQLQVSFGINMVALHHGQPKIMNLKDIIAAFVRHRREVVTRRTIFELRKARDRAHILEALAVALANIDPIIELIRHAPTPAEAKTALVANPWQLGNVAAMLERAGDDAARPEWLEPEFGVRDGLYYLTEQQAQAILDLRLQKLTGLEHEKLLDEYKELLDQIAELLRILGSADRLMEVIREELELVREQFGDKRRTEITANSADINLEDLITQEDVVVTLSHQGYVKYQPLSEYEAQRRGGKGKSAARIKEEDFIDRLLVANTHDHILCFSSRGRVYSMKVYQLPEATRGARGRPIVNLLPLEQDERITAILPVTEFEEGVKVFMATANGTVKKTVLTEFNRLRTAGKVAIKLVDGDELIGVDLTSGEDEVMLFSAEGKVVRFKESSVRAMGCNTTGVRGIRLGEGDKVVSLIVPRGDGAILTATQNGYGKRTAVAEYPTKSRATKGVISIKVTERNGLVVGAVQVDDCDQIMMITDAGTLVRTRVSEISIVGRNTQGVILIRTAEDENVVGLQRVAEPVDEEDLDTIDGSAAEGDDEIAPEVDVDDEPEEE
Protocol: DNA super-coiling activity was assayed using DNA gyrase assay kit (Topogen Inc.) with relaxed pHOT1 E. coli plasmid DNA according to manufacturer's protocol. The standard reaction mixture (20 μl) contained 35 mM Tris-HCl (pH 7.5), 24 mM KCl, 4 mM MgCl2, 2 mM dithiothreitol, 1.8 mM spermidine, 1 mM ATP, 6.5% glycerol, 0.1 mg/ml bovine serum albumin (BSA), 10 μg/ml relaxed pHOT1 plasmid DNA and 1 U of DNA gyrase. The reaction mixture was incubated at 37° C. for 1 h in presence of selected compounds/fluoroquinolone at different concentrations. The reaction was terminated by addition of ⅕ volume of loading dye (4 μl) followed by proteinase K (50 μg/ml) and again incubated at 37° C. for half an hour. 20 μl chloroform/isoamyl alcohol (24:1) was added to each tube and vortexed briefly. Thereafter, the blue aqueous phase was separated out and analyzed by 1% agarose gel electrophoresis. The gel was stained by ethidium bromide for half an hour and destained with water for 15 mins. The gel was then visualized in a trans-illuminator and photographed.

[5] = system: P. acnes CCARM 9010; experiment: In vitro time kill kinetics, P. acnes CCARM 9010; type: cell-based, Propionibacterium acnes; conditions: 2.5 μg/ml
Protocol: P. acnes (CCARM 9010) Aqueous Suspension (0.5 McFarland standard equivalent) was centrifuged at 2000 rpm for 20 min, pellet was resuspended in Brain Heart Infusion (BHI) broth. Resultant P. acnes suspension was kept for overnight (16 h) incubation in anaerobic box at 37° C. Stock solution of besifloxacin.HCl (1 mg/ml) was prepared in dimethyl sulphoxide (DMSO) which was further diluted with BHI broth to achieve working stock of besifloxacin.HCl (25 μg/ml). Then reaction mixture was prepared by adding 900 μl of P. acnes 0.5 McFarland standard culture (after 16 h incubation) to 100 μl of besifloxacin.HCl working stock solution (25 μg/ml), final besifloxacin.HCl concentration in reaction mixture was 2.5 μg/ml. Reaction mixture (1 ml) was incubated at 37° C. for 24 h in an anaerobic box in two sets—(1) tube with P. acnes with 2.5 μg/ml Besifloxacin.HCl and 2) broth control without besifloxacin.HCl. At predetermined time points (1 h, 6 h and 24 h), cells were collected and plated in duplicate after serial dilution in Brain Heart Infusion agar plate. Plates were allowed to grow for 3 days at 37° C. in anaerobic box. After incubation, plates were counted to determine colony forming units (CFU) and log reduction was calculated. In a similar experimental set-up, water was used as solvent instead of DMSO and effects of solvents on time kill kinetics were also studied.
2) Zone of Inhibition (ZOI): For ZOI test, BHA plates were spread with 100 μl of P. acnes suspension (0.5 McFarland standard equal). Test samples (drugs/formulations) were dissolved in water/solvent based on the solubility. Sterile disc (6 mm) were loaded with 10 μl of test samples (of various concentration of drug), and were placed above the plates containing P. acnes culture. Then, plates were incubated at 37° C. for 48 h, followed by their ZOI measurements. 3) Time Kill Kinetics (TK): For TK Test, P. acnes (CCARM 9010) aqueous suspension (0.5 McFarland standard equivalent) was centrifuged at 2000 rpm for 20 min, pellet was resuspended in brain heart infusion (BHI) broth. Resultant P. acnes suspension was kept for overnight (16 h) incubation in anaerobic box at 37° C. Stock solution of besifloxacin.HCl (1 mg/ml) was prepared in dimethyl sulphoxide (DMSO) which was further diluted with BHI broth to obtain working stock of besifloxacin.HCl (25 μg/ml). Then reaction mixture was prepared by adding 900 μl of P. acnes 0.5 McFarland standard equal culture (after 16 h of incubation) and 100 μl of besifloxacin.HCl working stock (25 μg/ml), to obtain final besifloxacin.HCl concentration in reaction mixture, 2.5 μg/ml. Reaction mixture (1 ml) was incubated at 37° C. in an anaerobic box—(1) tube with P. acnes and 2.5 μg/ml Besifloxacin.HCl and 2) broth control without besifloxacin.HCl for 24 h. At predetermined time points (0 h, 2 h, 8 h and 24 h), cells were collected and plated in duplicate after serial dilution in brain heart infusion agar plate. Plates were allowed to grow for 3 days at 37° C. in anaerobic box. After incubation, plates were counted to determine colony forming units (CFU) and log reduction was calculated.
0.5 McFarland standard equal P. acnes (CCARM 9010) culture was prepared in sterile water. Prepared culture was centrifuged at 2000 rpm for 20 min then supernatant was removed and similar amount of brain heart infusion (BHI) broth was added. P. acnes culture in BHI broth was kept for overnight (16 h.) incubation in anaerobic box at 37° C. Besifloxacin powder was diluted in water and DMSO to prepare 1 mg/ml stock and then both were further diluted in BHI broth to make final concentration of 100 μg/ml. 900 μl of P. acnes 0.5 McFarland culture (after 16 h. incubation) and 100 μl of diluted Besifloxacin (100 μg/ml) were mixed to obtain final Besifloxacin concentration 10 μg/ml in reaction mixture. Total reaction mixture (1 ml) was incubated at 37° C. in an anaerobic box.

[6] = system: IL-6; experiment: P. acnes-induced IL-6 release in THP-1 cells (ELISA); type: cell-based; conditions: THP-1 cells
Protocol: (§4) Method: Preparation of Stimulant for Inflammation: P. acnes culture suspension was prepared in PBS and the cell number in the suspension was adjusted to approximately 5×10^8 CFU/ml by measuring the cell density using a Densimat. The bacterial suspension was then heat killed at 80° C. for 30 min and stored at −80° C. until further use.
(§5) Cells were seeded in a 96-well format (2×10^5 THP-1 cells per well) in media containing 10% FBS. The cells were stimulated to induce inflammatory cytokines using 3 McFarland equivalent heat-killed P. acnes. Cells in control wells were treated with PBS. One hour after induction with P. acnes, test agents were added to the induced cells at appropriate concentrations to be tested (compound 91 at 25 μg/ml). The plates were incubated at 37° C. for 24 hours. After 24 h, the plates were centrifuged to pellet the cells and the supernatants were collected. The cell culture supernatants thus obtained were analyzed for levels of cytokines (IL-1α, IL-1β, IL-6 and IL-8) by ELISA using R&D Systems kits for individual cytokines following the manufacturer's instructions.
as §4, with “Preparation” for “Method: Preparation”, “stimulant” for “Stimulant”, “inflammation:” for “Inflammation:”
(§6) Cells were seeded in a 96-well format (2×10^5 THP-1 cells per well) in media containing 10% FBS. The cells were stimulated to induce inflammatory cytokines using 3 McFarland equivalent heat-killed P. acnes. Cells in control wells were treated with PBS. One hour after induction with P. acnes, test agents were added to the induced cells at appropriate concentrations (Besifloxacin at 10 and 30 μg/ml; Adapalene at 0.04 and 0.4 μg/ml). The plates were incubated at 37° C. for 24 hours. After 24 h, the plates were centrifuged to pellet the cells and the supernatants were collected. The cell culture supernatants thus obtained were analyzed for cytokine levels (IL-6 and IL-8) by ELISA using R&D Systems kits for individual cytokines following the manufacturer's instructions.

[7] = system: IL-8; experiment: P. acnes-induced IL-8 release in THP-1 cells (ELISA); type: cell-based; conditions: THP-1 cells
Protocol: as §4, §5
as §4, with “Preparation” for “Method: Preparation”, “stimulant” for “Stimulant”, “inflammation:” for “Inflammation:”
as §6

[8] = Cells + P. acnes + 10 μg/ml, 24 h, Table 70
[9] = Cells + P. acnes + 30 μg/ml, 24 h, Table 70
[10] = Cells + P. acnes + Besifloxacin•HCl 10 μg/ml, Table 71

## CCCCCCCCCCCC(=O)OC(CN1CCN(c2cc3c(cc2F)c(=O)c(C(=O)O)c2n3C(C)S2)CC1)Cn1c([N+](=O)[O-])cnc1C (stereo not drawn) [Compound 113, 7-{4-[2-Dodecanoyloxy-3-(2-methyl-5-nitro-imidazol-1-yl)-propyl]-piperazin-1-yl}-6-fluoro-1-methyl-4-oxo-4H-2-thia-8b-aza-cyclobuta[a]naphthalene-3-carboxylic acid]
[1]; Cutibacterium acnes, CCARM9010, read-out: MIC Resistant P. acnes (9010) strain
  MIC: 8 µg/mL (≈ 11.2 µM)
[1]; clindamycin-nonresponsive CCARM 9010
  Activity / bacterial killing, dose response curve (in words): hardly showed any activity
[2]
  Activity against S. aureus strain (in words): least activities
[2]; Staphylococcus aureus, MTCC6908, Table 6, read-out: MIC Susceptible S. aureus (6908) strain
  MIC: > 8.2 µg/mL
[3]; Cutibacterium acnes, MTCC1951, read-out: MIC Susceptible P. acnes (1951) strain
  MIC: 8.2 µg/mL (≈ 11.5 µM)
[3]; clindamycin-susceptible MTCC 1951
  Activity / bacterial killing, dose response curve (in words): hardly showed any activity
[4]
  Inhibition of super-coiling activity of DNA gyrase (in words): able to inhibit the super-coiling activity

## Cl.N[C@@H]1CCCCN(c2c(F)cc3c(=O)c(C(=O)O)cn(C4CC4)c3c2Cl)C1 [Besifloxacin•HCl]
[5]; stock in DMSO, 0 h
  Log 10 value of P. acnes: 7.0 ± 0.02
[5]; stock in DMSO, 1 h
  Log 10 value of P. acnes: 6.7 ± 0.03
[5]; stock in DMSO, 6 h
  Log 10 value of P. acnes: 6.0 ± 0.05
[5]; stock in DMSO, 24 h
  Log 10 value of P. acnes: 5.2 ± 0.02
[5]; stock in water, 0 h
  Log 10 value of P. acnes: 7.0 ± 0.02
[5]; stock in water, 1 h
  Log 10 value of P. acnes: 6.7 ± 0.03
[5]; stock in water, 6 h
  Log 10 value of P. acnes: 6.0 ± 0.02
[5]; stock in water, 24 h
  Log 10 value of P. acnes: 5.2 ± 0.02
[6]; [8]
  Expression of Cytokines IL-6 (pg/ml) Mean: 282.45 pg/mL
[6]; [9]
  Expression of Cytokines IL-6 (pg/ml) Mean: 124.58 pg/mL
[6]; [10]
  Expression of Cytokines IL-6 (pg/ml) Mean: 282.45 pg/mL
[7]; [8]
  Expression of Cytokines IL-8 (pg/ml) Mean: 2484.8 pg/mL
[7]; [9]
  Expression of Cytokines IL-8 (pg/ml) Mean: 2301.6 pg/mL
[7]; [10]
  Expression of Cytokines IL-8 (pg/ml) Mean: 2484.76 pg/mL
